Measured values as given in ChEMBL document CHEMBL5120926, “Isolation and Synthesis of Azuriaplysins A and B, Bromoditerpenes with an α-Methylene Carbonyl from the Sea Hare Aplysia kurodai” (J Nat Prod, 2022).

Tested on: HeLa S3
Test: Cytotoxicity against human HeLa S3 cells assessed as inhibition of cell growth incubated for 72 hrs by MTT assay
Assay type: functional, cell-based
Settings: Homo sapiens, HeLa S3, 72 h

SMILES | IC50
C=C(CC[C@@H]1[C@@]2(C)CC[C@H](Br)C(C)(C)[C@@H]2CC[C@@]1(C)O)C(=O)CO (stereo in doubt; form 1) | 8.1 µM

Same assay, conditions: hela s3

SMILES | IC50
C=C(C=O)CC[C@@H]1[C@@]2(C)CC[C@H](Br)C(C)(C)[C@@H]2CC[C@@]1(C)O (stereo in doubt; form 1) | 40 µM
C=C(C=O)CC[C@@H]1[C@@]2(C)CC[C@H](Br)C(C)(C)[C@@H]2CC[C@@]1(C)O (stereo in doubt; form 2) | 24 µM
C=C(CC[C@@H]1[C@@]2(C)CC[C@H](Br)C(C)(C)[C@@H]2CC[C@@]1(C)O)C(=O)CO (stereo in doubt; form 2) | 5.2 µM
C=C(C=O)CC[C@@H]1[C@@]2(C)CC[C@H](Br)C(C)(C)[C@@H]2CC[C@@]1(C)O (stereo in doubt; form 3) | 14 µM
C=C(CC[C@@H]1[C@@]2(C)CC[C@H](Br)C(C)(C)[C@@H]2CC[C@@]1(C)O)C(=O)CO (stereo in doubt; form 3) | 4.1 µM
